Results from US8575197B2, “Pyrolinone derivative and pharmaceutical composition comprising the same” (Shionogi & Co., Ltd., priority 2008, dated 2013).
pIC50: −log10 of the molar value.

What follows are molecules tested against human P2X3 receptor (Homo sapiens (Human), UniProt P56373) (assay: P2X3 receptor inhibition, ATP-evoked Fluo-3 calcium fluorescence (FDSS 3000)). Details: C6BU-1 cell transfected with human P2X3 receptor gene; ATP-evoked Fluo-3 fluorescence.
Format: cell-based
Description: Stably expressing cell line (C6BU-1 cell transfected with human P2X3 receptor gene (GenBank accession number Y07683)) was used. The cells were seeded in a 96-well microtiter plate at a concentration of 8000 cells/well and cultured in the medium (8.3% fetal bovine serum, 8.3% horse serum, 1% antibiotic and antifungal in DMEM) for one day at 37° C. under 5% carbon dioxide atmosphere. The medium was replaced with 4 μM Fluo-3-AM solution (pH7.5) containing 20 mM HEPES, 137 mM NaCl, 2.7 mM KCl, 0.9 mM MgCl2, 5.0 mM CaCl2, 5.6 mM D-glucose, 2.5 mM probenecid, 10% BSA, and 0.08% Pluronic F-127, and incubated at 37° C. under 5% dioxide carbon atmosphere for one hour. The plate was washed with washing buffer (20 mM HEPES, 137 mM NaCl, 2.7 mM KCl, 0.9 mM MgCl2, 5.0 mM CaCl2, 5.6 mM D-glucose, 2.5 mM probenecid, pH7.5), and each well was added with 40 μL of this buffer. The plate was placed in High-Throughput Screening System FDSS 3000 (Hamamatsu Photonics K.K.). Measurement of fluorescence intensity by FDSS 3000 was started, and 40 μL of DMSO solutions containing different concentrations of the test compound as prepared by dilution with dilution buffer (20 mM HEPES, 137 mM NaCl, 2.7 mM KCl, 0.9 mM MgCl2, 5.0 mM CaCl2, 5.6 mM D-glucose, 2.5 mM probenecid, 0.1% Pluronic F-127, pH7.5) were dispensed to each well through the built-in automatic dispenser. Five minutes after, 40 nM ATP solution (50 μL) prepared by dilution with the dilution buffer was dispensed through the built-in automatic dispenser, and the measurement of fluorescence intensity was continued for 3 min. For each well, the specific maximum fluorescence intensity was calculated as the ratio of the maximum fluorescence intensity after addition of the ATP solution to the fluorescence intensity at the starting of the measurement. […] FDSS software (Hamamatsu Photonics K.K.) was used for calculation of the specific maximum fluorescence intensity. IC50 was calculated using Microsoft™ Excel™ (Microsoft Corporation) and XLfit™ (ID Business Solutions Ltd.).

Chain of human P2X3 receptor (P56373 whole entry): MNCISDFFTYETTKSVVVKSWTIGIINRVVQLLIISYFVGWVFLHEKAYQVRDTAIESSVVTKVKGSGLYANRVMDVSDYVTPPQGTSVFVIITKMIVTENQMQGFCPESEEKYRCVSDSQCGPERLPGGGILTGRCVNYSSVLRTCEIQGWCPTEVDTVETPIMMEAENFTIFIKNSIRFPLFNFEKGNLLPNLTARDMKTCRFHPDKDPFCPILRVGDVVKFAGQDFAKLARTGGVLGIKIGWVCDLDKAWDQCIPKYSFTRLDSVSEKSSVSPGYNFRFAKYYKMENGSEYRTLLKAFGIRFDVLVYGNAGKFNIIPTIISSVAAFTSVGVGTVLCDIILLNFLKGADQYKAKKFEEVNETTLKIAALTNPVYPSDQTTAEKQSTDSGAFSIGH

COCCOc1ccccc1C1c2c(C(C)(C)C)n[nH]c2C(=O)N1c1ccc(-c2ccco2)cc1 (stereo not drawn) [II-027] and COCCOc1ccccc1C1c2c(C(C)(C)C)n[nH]c2C(=O)N1c1ccc(-c2ccsc2)cc1 (stereo not drawn) [II-115] are within 0.2 log units of each other in pIC50: 8.10 for the first, 7.96 for the second.

First: CC(C)c1n[nH]c2c1C(c1ccccc1OC(CO)CO)N(c1ccc(-c3ccsc3)cc1)C2=O (stereo not drawn) [II-236]
Second: CC(C)c1n[nH]c2c1C(c1ccccc1CO)N(c1ccc(-c3ccsc3)cc1)C2=O (stereo not drawn) [II-086]
The pIC50 of the first is 0.81 log units higher: 8.30 for the first, 7.49 for the second. The first is the more potent here.

First: CC(C)C(=O)C1=C(O)C(=O)N(c2ccc(-c3ccsc3)cc2)C1c1ccccc1OCC(CO)CO (stereo not drawn) [Compound I-456]
Second: CC(C)C(=O)C1=C(O)C(=O)N(c2ccc(-c3ccsc3)cc2)C1c1ccccc1OCCN(C)C (stereo not drawn) [Compound I-157]
The pIC50 of the first is 0.62 log units higher: 8.22 for the first, 7.60 for the second. The first is the more potent here.

First: Cc1ccc(-c2ccc(N3C(=O)C(O)=C(C(=O)CC(C)C)C3c3ccccc3C(=O)N3CCOCC3)cc2)o1 (stereo not drawn) [Compound I-506]
Second: Cc1ccc(-c2ccc(N3C(=O)C(O)=C(C(=O)CC(C)C)C3c3cccnc3C(=O)N3CCCC3)cc2)s1 (stereo not drawn) [Compound I-579]
The pIC50 of the first is 0.58 log units higher: 6.95 for the first, 6.37 for the second.

First: COCc1ccccc1C1C(C(=O)C(C)C)=C(O)C(=O)N1c1ccc(-c2ccccc2)cc1 (stereo not drawn) [Compound I-282]
Second: COCc1ccccc1C1C(C(=O)C(C)C)=C(O)C(=O)N1c1ccc(-c2csc(C)c2)cc1 (stereo not drawn) [Compound I-265]
The pIC50 of the first is 1.22 log units lower: 6.33 for the first, 7.55 for the second.

Compared with COc1ccccc1C1C(C(=O)C(C)(C)C)=C(O)C(=O)N1c1ccc(-c2cccs2)cc1 (stereo not drawn) [Compound I-079], COc1ccccc1C1C(C(=O)C(C)(C)C)=C(O)C(=O)N1c1ccc(-c2ccc(C)s2)cc1 (stereo not drawn) [Compound I-210] is 0.31 log units lower in pIC50: 7.64 for the first, 7.33 for the second.

Going from CC(C)(C)C(=O)C1=C(O)C(=O)N(c2ccc(-c3ccco3)cc2)C1c1ccccc1OCCO (stereo not drawn) [Compound I-085] to CC(C)(C)C(=O)C1=C(O)C(=O)N(c2ccc(-c3cc[nH]c3)cc2)C1c1ccccc1OCCO (stereo not drawn) [Compound I-154], the pIC50 falls from 7.32 to 6.72 (0.60 log units).

Compared with CC(C)CC(=O)C1=C(O)C(=O)N(c2ccc(-c3ccsc3)cc2)C1c1ccccc1OCCO (stereo not drawn) [Compound I-250], CC(C)CC(=O)C1=C(O)C(=O)N(c2ccc(-c3ccsc3)cc2)C1c1ccccc1C(F)(F)F (stereo not drawn) [Compound I-292] is 0.64 log units lower in pIC50: 7.54 for the first, 6.90 for the second. The first is the more potent here.

Compared with COc1ccccc1C1C(C(=O)C(C)(C)C)=C(O)C(=O)N1c1ccc(-c2ccoc2)cc1 (stereo not drawn) [Compound I-077], COCCOc1ccccc1C1C(C(=O)C(C)(C)C)=C(O)C(=O)N1c1ccc(-c2cc[nH]c2)cc1 (stereo not drawn) [Compound I-153] is 0.65 log units lower in pIC50: 7.32 for the first, 6.67 for the second.

First: Cc1ccc(-c2ccc(N3C(=O)C(O)=C(C(=O)C(C)C)C3c3cccnc3OCCO)cc2)o1 (stereo not drawn) [Compound I-483]
Second: CC(C)C(=O)C1=C(O)C(=O)N(c2ccc(-c3ccsc3)cc2)C1c1cccnc1OCCO (stereo not drawn) [Compound I-176]
The pIC50 of the first is 0.29 log units lower: 7.05 for the first, 7.34 for the second.

COCc1ccccc1C1C(C(=O)C(C)(C)C)=C(O)C(=O)N1c1ccc(-c2noc(C)n2)cc1 (stereo not drawn) [Compound I-051] and COCc1ccccc1C1c2c(C(C)(C)C)n[nH]c2C(=O)N1c1ccc(-c2noc(C)n2)cc1 (stereo not drawn) [II-069] are within 0.2 log units of each other in pIC50: 6.56 for the first, 6.38 for the second.

Compared with COc1ccccc1C1c2c(C(C)(C)CO)n[nH]c2C(=O)N1c1ccc(-c2cc[nH]c2)cc1 (stereo not drawn) [II-232], COc1ccccc1C1c2c(C(F)(F)F)n[nH]c2C(=O)N1c1ccc(-c2ccon2)cc1 (stereo not drawn) [II-148] is 1.29 log units lower in pIC50: 7.80 for the first, 6.51 for the second. The first is the more potent here.

First: COc1ccccc1C1C(C(=O)C(C)(C)C)=C(O)C(=O)N1c1ccc(C(C)(C)C)cc1 (stereo not drawn) [Compound I-046]
Second: C[S+]([O-])CCOc1ccccc1C1C(C(=O)C(C)(C)C)=C(O)C(=O)N1c1ccc(-c2ccon2)cc1 (stereo not drawn) [Compound I-152]
The pIC50 of the first is 0.42 log units lower: 6.24 for the first, 6.66 for the second. The second is the more potent here.

Compared with CC(C)c1n[nH]c2c1C(c1ccccc1OCCN(C)C)N(c1ccc(-c3ccsc3)cc1)C2=O (stereo not drawn) [II-078], CC(C)c1n[nH]c2c1C(c1ccccc1OCC(=O)NN)N(c1ccc(-c3ccsc3)cc1)C2=O (stereo not drawn) [II-051] is 0.50 log units higher in pIC50: 7.80 for the first, 8.30 for the second. The second is the more potent here.

First: COc1ccccc1C1C(C(=O)CC(C)C)=C(O)C(=O)N1c1ccc(-c2ccc(C)s2)cc1 (stereo not drawn) [Compound I-327]
Second: Cc1cc(-c2ccc(N3C(=O)C(O)=C(C(=O)CC(C)C)C3c3ccccc3OC(C)C)cc2)cs1 (stereo not drawn) [Compound I-373]
The pIC50 of the first is 0.26 log units lower: 7.03 for the first, 7.29 for the second.

First: CC(C)(C)c1n[nH]c2c1C(c1ccccc1OCc1nnn[nH]1)N(c1ccc(-c3ccsc3)cc1)C2=O (stereo not drawn) [II-174]
Second: COCCOc1ncccc1C1c2c(C(C)(C)C)n[nH]c2C(=O)N1c1ccc(-c2ccsc2)cc1 (stereo not drawn) [II-032]
The pIC50 of the first is 0.30 log units higher: 8.52 for the first, 8.22 for the second. The first is the more potent here.

First: COC(=O)COc1ccccc1C1c2c(C(C)(C)C)n[nH]c2C(=O)N1c1ccc(-c2cccs2)cc1 (stereo not drawn) [II-021]
Second: COc1ncccc1C1c2c(C(C)(C)C)n[nH]c2C(=O)N1c1ccc(-c2cccs2)cc1 (stereo not drawn) [II-224]
The pIC50 of the first is 0.54 log units higher: 8.05 for the first, 7.51 for the second. The first is the more potent here.

First: COCc1ccccc1C1C(C(=O)c2cccnc2)=C(O)C(=O)N1c1ccc(-c2ccsc2)cc1 (stereo not drawn) [Compound I-461]
Second: COCc1ncccc1C1C(C(=O)CC(C)C)=C(O)C(=O)N1c1ccc(-c2ccsc2)cc1 (stereo not drawn) [Compound I-324]
The pIC50 of the first is 0.48 log units higher: 7.44 for the first, 6.96 for the second.

Cc1nc(-c2ccc(N3C(=O)C(O)=C(C(=O)C(C)C)C3c3ccccc3N3CCOCC3)cc2)no1 (stereo not drawn) [Compound I-487] and COCCOc1ccccc1C1C(C(=O)C(C)C)=C(O)C(=O)N1c1ccc(-c2noc(C)n2)cc1 (stereo not drawn) [Compound I-275] are within 0.2 log units of each other in pIC50: 6.78 for the first, 6.76 for the second.

Going from COCCOc1cccc(C2C(C(=O)C(C)C)=C(O)C(=O)N2c2ccc(-c3ccsc3)cc2)c1 (stereo not drawn) [Compound I-286] to COc1cccc(C2C(C(=O)C(C)C)=C(O)C(=O)N2c2ccc(-c3ccsc3)cc2)c1 (stereo not drawn) [Compound I-284], the pIC50 rises from 6.17 to 6.52 (0.35 log units).

Going from COc1ncccc1C1c2c(C(C)(C)C)n[nH]c2C(=O)N1c1ccc(-c2noc(C)n2)cc1 (stereo not drawn) [II-194] to Cc1nc(-c2ccc(N3C(=O)c4[nH]nc(C(C)C)c4C3c3cccnc3OCCO)cc2)no1 (stereo not drawn) [II-046], the pIC50 falls from 6.41 to 6.06 (0.35 log units). The first is the more potent here.

Compared with COCCN(C)C(=O)c1ncccc1C1C(C(=O)CC(C)C)=C(O)C(=O)N1c1ccc(-c2ccc(C)s2)cc1 (stereo not drawn) [Compound I-582], Cc1ccc(-c2ccc(N3C(=O)C(O)=C(C(=O)C(C)C)C3c3ccccc3C(=O)N(C)C)cc2)s1 (stereo not drawn) [Compound I-401] is 0.66 log units higher in pIC50: 6.44 for the first, 7.10 for the second.

Cc1cc(-c2ccc(N3C(=O)C(O)=C(C(=O)C(C)C)C3c3ccccc3C(=O)N(C)CCO)cc2)cs1 (stereo not drawn) [Compound I-584] and Cc1cc(-c2ccc(N3C(=O)C(O)=C(C(=O)CC(C)C)C3c3ccccc3OC(F)F)cc2)cs1 (stereo not drawn) [Compound I-377] are within 0.2 log units of each other in pIC50: 6.78 for the first, 6.83 for the second.

Compared with CC(C)CC(=O)C1=C(O)C(=O)N(c2ccc(-c3ccoc3)cc2)C1c1ccccc1OC(F)F (stereo not drawn) [Compound I-342], Cc1nc(-c2ccc(N3C(=O)C(O)=C(C(=O)CC(C)C)C3c3ccccc3OC(F)F)cc2)no1 (stereo not drawn) [Compound I-318] is 0.69 log units lower in pIC50: 7.17 for the first, 6.48 for the second. The first is the more potent here.

Compared with COCc1ccccc1C1c2c(C(C)(C)C)n[nH]c2C(=O)N1c1ccc(-c2cc(C)no2)cc1 (stereo not drawn) [II-068], CC(C)(C)c1n[nH]c2c1C(c1cccnc1OCCO)N(c1ccc(-c3ccon3)cc1)C2=O (stereo not drawn) [II-036] is 0.35 log units higher in pIC50: 6.29 for the first, 6.64 for the second. The second is the more potent here.

COc1ccccc1C1c2c(C3CC3)n[nH]c2C(=O)N1c1ccc(-c2ccsc2)cc1 (stereo not drawn) [II-083] and CC(C)c1n[nH]c2c1C(c1cccnc1OCC(N)=O)N(c1ccc(-c3ccsc3)cc1)C2=O (stereo not drawn) [II-054] are within 0.2 log units of each other in pIC50: 7.62 for the first, 7.59 for the second.

First: Cc1nc(-c2ccc(N3C(=O)C(O)=C(C(=O)C4CCCC4)C3c3ccccc3OC(C)C)cc2)no1 (stereo not drawn) [Compound I-518]
Second: Cc1ccc(-c2ccc(N3C(=O)C(O)=C(C(=O)C(C)C)C3c3ccccc3OC(C)C)cc2)o1 (stereo not drawn) [Compound I-396]
The pIC50 of the first is 1.09 log units lower: 7.06 for the first, 8.15 for the second. The second is the more potent here.

COC(=O)COc1ccccc1C1C(C(=O)C(C)(C)C)=C(O)C(=O)N1c1ccc(-c2ccsc2)cc1 (stereo not drawn) [Compound I-114] and CC(C)C(=O)C1=C(O)C(=O)N(c2ccc(-c3ccsc3)cc2)C1c1ccccc1OC(F)F (stereo not drawn) [Compound I-301] are within 0.2 log units of each other in pIC50: 7.92 for the first, 7.74 for the second.

COCc1ccccc1C1C(C(=O)CC(C)C)=C(O)C(=O)N1c1ccc(-c2csc(C)n2)cc1 (stereo not drawn) [Compound I-428] and COCc1ccccc1C1C(C(=O)C(C)C)=C(O)C(=O)N1c1ccc(SC)cc1 (stereo not drawn) [Compound I-477] are within 0.2 log units of each other in pIC50: 6.40 for the first, 6.32 for the second.

Compared with COc1cc(F)ccc1C1C(C(=O)C(C)C)=C(O)C(=O)N1c1ccc(-c2ccsc2)cc1 (stereo not drawn) [Compound I-325], CCOCOc1ccccc1C1C(C(=O)C(C)C)=C(O)C(=O)N1c1ccc(-c2ccon2)cc1 (stereo not drawn) [Compound I-543] is 1.12 log units lower in pIC50: 7.74 for the first, 6.62 for the second.

Going from Cc1ccc(-c2ccc(N3C(=O)C(O)=C(C(=O)C(C)C)C3c3ccccc3N3CCCC3=O)cc2)s1 (stereo not drawn) [Compound I-597] to COc1ccc(C(=O)C2=C(O)C(=O)N(c3ccc(-c4cc(C)no4)cc3)C2c2ccccc2OC)cc1 (stereo not drawn) [Compound I-027], the pIC50 rises from 6.18 to 7.40 (1.22 log units).

Work on COCCOc1ccccc1C1C(C(=O)CC(C)C)=C(O)C(=O)N1c1ccc(SC)cc1 (stereo not drawn) [Compound I-435] yielded a pIC50 of 7.09.
